By inhibition is commonly meant how much of the control response was suppressed. Usually Ki stands for a dissociation constant, usually derived from enzyme kinetics or from competition with a known ligand. As usually defined, the EC50 is the concentration giving half of the maximal effect. Higher therefore signals a need for much substance.

One experiment deals with T1, MC1-R (Mus musculus, UniProt Q01727).
T1 construct: B-16 mouse melanoma cells (containing MC1-R); endogenous in cells
The experiment in a line: Competitive inhibition assay using [I^125]-NDP-α-MSH, B-16 mouse melanoma cell membranes. Format: binding. Particulars: for inhibition at 1 µM: 1 μM test compound, read-out: Inhibition at 1 μM (NDP-α-MSH) In Normal System, MC1-R; for Ki: read-out: Ki (nM) (NDP-α-MSH) In Normal System, MC1-R. The protocol:
(§1) The ligand concentration used was 0.4 nM for MC3-R and MC5-R, 0.2 nM for MC4-R and 0.1 nM for B16-F10 (MC1-R) membranes. In certain experiments, hMC1-R was also employed.
(§2) The assay mixture was incubated for 90 minutes at room temperature, then filtered and the membranes washed three times with ice cold buffer. The filter was dried and counted in a gamma counter for remaining radioactivity bound to the membranes. […] Each assay was conducted in triplicate and the actual mean values are described, with results less than 0% reported as 0%.

Experiment [1] can be described thus: IP (and IN) food intake, mice. The format is in vivo. The note with it: mouse, IP, 4 hours; for maximal decrease in food intake / inhibition in vivo at 10 mg/kg: 10 mg/kg; for inhibition in vivo at 3 mg/kg / inhibition in vivo at 10 mg/kg: read-out: maximal decrease in food intake. The protocol:
IV and IP food intake and body weight change. Change in food intake and body weight was evaluated for selected compounds. Male Sprague-Dawley rats or male C57BL/6 mice were utilized. Animals were individually housed in conventional plexiglass hanging cages and maintained on a controlled 12 hour on/off light cycle. Water and powdered (LabDiet, 5P00 Prolab RMH 3000) or pelleted (Harlan Teklad 2018 18% Protein Rodent Diet) food was provided ad libitum. For 1 week before treatment, 24-hour food intake and body weight change was recorded to assess a baseline for the group during vehicle treatment. The rats were dosed IV with vehicle or selected compounds (0.5-3 mg/kg, and in some cases up to 10 mg/Kg) or dosed intraperitoneally (IP) with vehicle or selected compounds (0.5-10 mg/kg, and in some cases up to 50 mg/kg). Mice were dosed IP. […] The changes in body weight and food intake for the 48 hour and 72 hour periods after dosing were also measured to determined reversal of changes in body weight and food intake effects back to baseline levels.

In the next experiment the target is MC3-R (Homo sapiens, UniProt P41968). Description: Competitive inhibition assay using [I^125]-NDP-α-MSH, hMC3-R membranes. The format is binding. More on the design: expressed in transfected cells. The note with it: for inhibition at 1 µM: 1 μM test compound, read-out: Inhibition at 1 μM (NDP-α-MSH) In Normal System, MC3-R. As to the method:
as §1, §2

Another experiment addresses MC5-R (Homo sapiens, UniProt P33032). The experiment in a line: Competitive inhibition assay using [I^125]-NDP-α-MSH, hMC5-R membranes. The format is binding. More on the design: expressed in transfected cells. The note with it: for inhibition at 1 µM: 1 μM test compound, read-out: Inhibition at 1 μM (NDP-α-MSH) In Normal System, MC5-R. The protocol: as §1, §2
For experiment [2], the target named is T2, MC4-R (Homo sapiens, UniProt P32245). Description: Competitive inhibition assay using [I^125]-NDP-α-MSH, hMC4-R membranes. More on the design: host or cells: TREx-293 (HEK-293 stably expressing Tet repressor). Particulars: for inhibition at 1 µM: 1 μM test compound, read-out: Inhibition at 1 μM (NDP-α-MSH) In Normal System, MC4-R. The format is binding. The protocol: as §1, §2

The target of experiment [3] is T2, MC4-R. Description: cAMP agonist stimulation, low receptor density system (0.1 ng/mL doxycycline). Particulars: 0.1 ng/mL doxycycline, low receptor density hMC4-R system; NDP-α-MSH maximal cAMP = 1.0.
For experiment [4], the target named is T2, MC4-R. Description: cAMP agonist stimulation, high receptor density system (10 ng/mL doxycycline). The note with it: for Efficacy/Intrinsic Activity: 10 ng/mL doxycycline, high receptor density hMC4-R system, NDP-α-MSH maximal cAMP = 1.0.
Experiment [5] can be described thus: Penile erection induction in male rats. The note with it: rat. The format is in vivo. The protocol: Penile erection induction. The ability of compounds to induce penile erection (PE) in male rats was evaluated with selected compounds. Male Sprague-Dawley rats weighing 200-250 g were kept on a 12 hour on/off light cycle with food and water ad libitum. All behavioral studies were performed between 10 A.M. and 5 P.M. Groups of 4-8 rats were treated with compounds at a variety of doses via intravenous (IV) or intracerebroventricular (ICV) routes. Immediately after treatment, rats were placed into individual polystyrene cages (27 cm long, 16 cm wide, and 25 cm high) for behavioral observation. […] Controls utilized carrier without the test compound. Mean PEs in control groups were 0.17 to 0.5 PEs/rat by IV administration in various experiments and between 1-2 PEs/rat by ICV administration in various experiments, and thus only PEs with statistically relevant increases over the mean PEs in control groups are reported as inducing PEs. A PE response in IV animals greater than the mean PEs in control groups but less than 1.0 PEs/rat, particularly with less than all animals responding, was treated as equivocal, and not necessarily distinguishable from vehicle control. In selected instances, compounds with equivocal results in the IV model were tested for penile response in an ICV model, and compounds without a statistically relevant increase over the mean PEs in ICV control groups were determined to not induce PEs.

Experiment [6] has as its target T2, MC4-R. Description: cAMP functional activity assay in HEK-293 cells, normal system. The note with it: for intrinsic activity at MC4-R in a normal system: NDP-α-MSH = 1.0; for functional status at MC4-R in cAMP assay: normal system, 1 μM concentration where stated. More on the design: expressed in transfected cells; host or cells: HEK-293. The format is cell-based. As to the method:
General method for EC50 determination in functional activity assay. […] Data analysis and EC50 values were determined using nonlinear regression analysis with Prism Graph-Pad software.
Functional status. The agonist/antagonist status with respect to MC1-R, MC-3R, MC4-R and MC5-R of certain compounds of the invention was determined. Antagonistic activity was determined by measuring the inhibition of α-MSH-induced or NDP-α-MSH-induced cAMP levels following exposure to graded doses of compounds as in the preceding descriptions.
Assay for agonist. Evaluation of the molecules to elicit a functional response in HEK-293 cells expressing MC4-R was accomplished by measuring the accumulation of intracellular cAMP following treatment. Confluent HEK-293 cells expressing MC4-R receptors were detached by enzyme free cell suspension buffer. […] The cells were plated in a 96 well plates at a density of 0.5×10^5 cells per well and pre-incubated for 30 minutes. Test compounds (dissolved in dimethylsulfoxide (DMSO) at a concentration range of 0.05-5000 nM) were added in a total assay volume of 200 μL and cells were incubated for 1 hour at 37° C. The concentration of DMSO was always held at 1% in the assay mixture. NDP-α-MSH was used as the reference agonist. […] Data analysis and EC50 values were determined by using nonlinear regression analysis with Prism Graph-Pad software. […] Compounds with a response ratio of less than 0.1 (10%) were evaluated for antagonistic activity.
On the technique in general: Changes in cAMP serve as a functional read-out for many G protein-coupled receptors.

Chain of MC3-R (P41968 whole entry): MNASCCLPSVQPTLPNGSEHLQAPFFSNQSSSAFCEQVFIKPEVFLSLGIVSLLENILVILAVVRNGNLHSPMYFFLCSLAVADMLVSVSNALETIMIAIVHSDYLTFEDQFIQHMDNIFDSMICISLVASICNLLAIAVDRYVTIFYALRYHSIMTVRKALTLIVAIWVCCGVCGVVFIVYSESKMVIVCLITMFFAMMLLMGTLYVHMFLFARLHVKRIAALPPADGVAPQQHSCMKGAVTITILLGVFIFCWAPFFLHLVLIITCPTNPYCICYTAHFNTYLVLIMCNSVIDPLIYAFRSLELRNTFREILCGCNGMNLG
T2 sequence (P32245 whole entry): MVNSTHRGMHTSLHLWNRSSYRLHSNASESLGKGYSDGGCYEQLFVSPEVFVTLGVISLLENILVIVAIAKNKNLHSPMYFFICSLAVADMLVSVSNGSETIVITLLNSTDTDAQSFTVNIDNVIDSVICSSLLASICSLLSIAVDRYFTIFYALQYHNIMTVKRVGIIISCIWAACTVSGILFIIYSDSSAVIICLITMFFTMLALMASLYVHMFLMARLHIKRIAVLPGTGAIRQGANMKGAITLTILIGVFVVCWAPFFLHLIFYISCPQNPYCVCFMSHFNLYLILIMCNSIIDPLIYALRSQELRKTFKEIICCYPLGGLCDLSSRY
Chain of MC5-R (P33032 whole entry): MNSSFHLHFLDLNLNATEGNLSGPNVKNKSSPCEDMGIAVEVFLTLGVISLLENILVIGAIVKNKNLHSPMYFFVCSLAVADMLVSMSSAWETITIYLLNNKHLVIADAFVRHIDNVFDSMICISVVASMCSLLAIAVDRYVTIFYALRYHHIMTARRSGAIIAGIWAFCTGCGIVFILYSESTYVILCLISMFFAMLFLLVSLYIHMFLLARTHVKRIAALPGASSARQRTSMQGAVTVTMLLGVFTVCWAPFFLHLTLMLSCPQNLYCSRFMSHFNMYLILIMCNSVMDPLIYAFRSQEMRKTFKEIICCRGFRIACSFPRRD
T1 sequence (Q01727 whole entry): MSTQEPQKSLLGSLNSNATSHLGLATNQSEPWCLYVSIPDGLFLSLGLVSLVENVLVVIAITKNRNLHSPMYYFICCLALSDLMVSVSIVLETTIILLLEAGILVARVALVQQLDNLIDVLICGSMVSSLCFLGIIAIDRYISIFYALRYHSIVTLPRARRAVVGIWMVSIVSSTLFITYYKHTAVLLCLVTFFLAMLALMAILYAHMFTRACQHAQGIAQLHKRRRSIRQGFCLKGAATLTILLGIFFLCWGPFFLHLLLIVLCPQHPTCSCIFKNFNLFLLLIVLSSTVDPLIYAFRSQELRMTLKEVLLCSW

Regarding `CC(=O)N[C@H](Cc1ccc2ccccc2c1)C(=O)N1C[C@@H](CC(C)C)N(CCc2ccc3ccccc3c2)C[C@@H]1CCCNC(=N)N` [Example 12, N-{2-[2(S)-(3-Guanidino-propyl)-5(R)-isobutyl-4-(2-naphthalen-2-yl-ethyl)-piperazin-1-yl]-1(R)-naphthalen-2-ylmethyl-2-oxo-ethyl}-acetamide], the inhibition at 1 µM amounted to 0% at MC1-R, 40% on MC3-R, 64% at MC5-R and 100% on MC4-R [2]. Moreover, on MC1-R, the Ki turned out to be 4620 nM. The “maximal decrease in food intake” value in experiment [1] was determined as 46%. The “Efficacy/Intrinsic Activity” value at MC4-R [3] and on MC4-R [4] was “None” throughout.
With `CC(=O)N[C@H](Cc1ccc(C)cc1C)C(=O)N1C[C@@H](C)N(CCc2ccc3ccccc3c2)C[C@@H]1CCCNC(=N)N` [Example 25, N-{1(R)-(2,4-Dimethyl-benzyl)-2-[2(S)-(3-guanidino-propyl)-5(R)-methyl-4-(2-naphthalen-2-yl-ethyl)-piperazin-1-yl]-2-oxo-ethyl}-acetamide], the inhibition at 1 µM at MC1-R is 28%; on MC3-R it was 75%; on MC5-R, 89%; on MC4-R [2], 100%. In addition, the Ki on MC1-R was 568 nM. Further, in [1], the “maximal decrease in food intake” value worked out at 34%. The “Efficacy/Intrinsic Activity” value on MC4-R [3] and at MC4-R [4] was “None” each time.
As to `Cc1cc(Cl)ccc1C[C@@H](N)C(=O)N1C[C@@H](C)N(CCc2ccc3ccccc3c2)C[C@@H]1CCCNC(=N)N` [Example 26, N-{3-[1-[2(R)-Amino-3-(2-methyl, 4-chloro-phenyl)-propionyl]-5(R)-methyl-4-(2-naphthalen-2-yl-ethyl)-piperazin-2(S)-yl]-propyl}-guanidine], the inhibition at 1 µM at MC1-R was determined as 6%; at MC3-R it was 74%; at MC5-R it was 77%; on MC4-R [2], 100%. Besides, the “Penile Erection IV” value in experiment [5] (IV) is on record as “No”. In addition, the penile erection response result in experiment [5] (IV, 1 and 3 mg/kg) is “no penile erection”. Further, the inhibition in vivo at 3 mg/kg in experiment [1] was found to be 44%. For the same compound, the inhibition in vivo at 10 mg/kg in experiment [1] worked out at 86%. At MC4-R [6] (normal receptor density system), the “intrinsic activity at MC4-R in a normal system” value was 0.3. The “functional status at MC4-R in cAMP assay” value on MC4-R [6] was “partial agonist (intrinsic activity between 0.1 (10%) and 0.7 (70%) is classified as a partial agonist)”. For the same compound, the “Efficacy/Intrinsic Activity” value on MC4-R [3] was “None”; on MC4-R [4], 0.78. At MC4-R [4], this compound came in with an EC50 of 31 nM.
Take `Cc1ccc(C[C@@H](N)C(=O)N2C[C@@H](C)N(CCc3ccc4ccccc4c3)C[C@@H]2CCCNC(=N)N)c(C)c1` [Example 27, N-{3-[1-[2(R)-Amino-3-(2,4-dimethyl-phenyl)-propionyl]-5(R)-methyl-4-(2-naphthalen-2-yl-ethyl)-piperazin-2(S)-yl]-propyl}-guanidine]: the inhibition at 1 µM came out at 9% at MC1-R, 62% on MC3-R, 59% on MC5-R and 100% on MC4-R [2]. Also, at MC1-R, the Ki was 1230 nM. In addition, the “Penile Erection ICV” value in experiment [5] (ICV) is “No”. For the same compound, the penile erection response result is recorded as “no penile erection response” in experiment [5] (ICV, 1 and 3 nmole); “no penile erections” in [5] (IV, 1 and 3 mg/kg). In experiment [5] (IV), the “Penile Erection IV” value is “No”. The inhibition in vivo at 3 mg/kg in experiment [1] was 47%. Besides, the inhibition in vivo at 10 mg/kg in [1] stood at 88%. Moreover, the “intrinsic activity at MC4-R in a normal system” value on MC4-R [6] (normal receptor density system) turned out to be 0.2. Moreover, the “functional status at MC4-R in cAMP assay” value on MC4-R [6] was “partial agonist (intrinsic activity between 0.1 (10%) and 0.7 (70%) is classified as a partial agonist)”. The “Efficacy/Intrinsic Activity” value at MC4-R [3] was “None”; on MC4-R [4], 0.61. On MC4-R [4], the EC50 was 129 nM.
Consider `C[C@@H]1CN(C(=O)[C@H](N)Cc2ccc3ccccc3c2)[C@@H](CCCNC(=N)N)CN1C(=O)Cc1ccc2ccccc2c1` [Example 33, N-{3-[(2S)-1-[(R)-2-Amino-3-(naphthlene-2-yl)-propionyl]-5(R)-methyl-4-(2-naphthalen-2-yl-acetyl)-piperazin-2-yl]-propyl}-guanidine], for which the inhibition at 1 µM was found to be 43% on MC1-R, 40% at MC3-R, 50% at MC5-R and 89% on MC4-R [2]. In addition, the inhibition constant (Ki) at MC1-R came to 227 nM; at MC3-R (read-out: Ki (nM) (NDP-α-MSH) In Normal System, MC3-R), 596 nM; on MC5-R (read-out: Ki (nM) (NDP-α-MSH) In Normal System, MC5-R), 548 nM; on MC4-R [2] (read-out: Ki (nM) (NDP-α-MSH) In Normal System, MC4-R) it was 19 nM. Moreover, in experiment [1], the inhibition in vivo at 10 mg/kg amounted to 25%. Also, the results for the EC50 at MC4-R [6] (normal receptor density system) and at MC4-R [4] were 42 nM and 50 nM, respectively.

Values taken from patent publication US20090081197A1 (Palatin Technologies, Inc., priority 2007, published 2009).
